Measured values published in patent publication US12655106B2 (Eikonizo Therapeutics, Inc., priority 2021, dated 2026).
pIC50: −log10 of the molar value.

Legend:
Full length Human HDAC6 = molecular target: T1, Full length Human HDAC6 (Homo sapiens, UniProt Q9UBN7); experiment: Caliper endpoint assay for HDAC enzymatic activity (HDAC6); type: biochemical; details: for pIC50: in vitro enzymatic, Caliper endpoint assay, 30 min pre-incubation, 1 μM substrate peptide; for Selectivity (6 v 8): ratio of HDAC8 IC50/HDAC6 IC50
T1 construct: Full length Human HDAC6; FLAG (C); host or cells: baculovirus expression system
T1 sequence (Q9UBN7 1-1215): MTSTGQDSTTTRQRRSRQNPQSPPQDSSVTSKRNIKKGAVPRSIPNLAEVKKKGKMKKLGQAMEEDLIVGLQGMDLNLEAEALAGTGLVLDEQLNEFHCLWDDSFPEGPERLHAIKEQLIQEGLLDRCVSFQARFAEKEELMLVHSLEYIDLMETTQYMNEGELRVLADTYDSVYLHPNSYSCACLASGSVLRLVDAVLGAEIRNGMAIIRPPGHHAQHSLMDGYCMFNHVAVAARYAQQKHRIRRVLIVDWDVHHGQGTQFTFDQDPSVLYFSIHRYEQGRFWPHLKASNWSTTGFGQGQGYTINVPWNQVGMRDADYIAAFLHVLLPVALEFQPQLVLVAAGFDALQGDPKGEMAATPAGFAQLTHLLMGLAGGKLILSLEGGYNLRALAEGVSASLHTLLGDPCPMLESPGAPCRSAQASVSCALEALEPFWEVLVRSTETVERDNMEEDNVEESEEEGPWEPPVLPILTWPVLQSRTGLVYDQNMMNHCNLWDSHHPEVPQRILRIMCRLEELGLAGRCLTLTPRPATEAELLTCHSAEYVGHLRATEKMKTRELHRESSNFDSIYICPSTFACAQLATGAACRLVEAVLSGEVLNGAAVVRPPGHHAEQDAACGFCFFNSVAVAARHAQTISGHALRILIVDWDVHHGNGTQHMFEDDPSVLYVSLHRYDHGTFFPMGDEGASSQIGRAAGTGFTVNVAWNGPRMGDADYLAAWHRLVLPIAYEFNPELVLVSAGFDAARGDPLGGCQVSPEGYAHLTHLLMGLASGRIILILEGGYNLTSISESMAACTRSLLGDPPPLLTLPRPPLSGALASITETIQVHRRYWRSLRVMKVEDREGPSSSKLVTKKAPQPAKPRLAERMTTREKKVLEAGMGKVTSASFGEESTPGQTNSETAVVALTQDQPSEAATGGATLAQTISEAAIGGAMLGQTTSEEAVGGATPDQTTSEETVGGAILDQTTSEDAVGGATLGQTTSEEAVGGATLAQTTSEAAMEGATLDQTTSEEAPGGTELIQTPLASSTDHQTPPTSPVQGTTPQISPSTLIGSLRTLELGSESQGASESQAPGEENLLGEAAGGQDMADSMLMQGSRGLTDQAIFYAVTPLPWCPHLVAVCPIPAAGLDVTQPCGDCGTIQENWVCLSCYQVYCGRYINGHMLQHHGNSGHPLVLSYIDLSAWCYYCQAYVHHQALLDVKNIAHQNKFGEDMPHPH

Full length Human HDAC8 = molecular target: T2, Full length Human HDAC8 (Homo sapiens, UniProt Q9BY41); experiment: Caliper endpoint assay for HDAC enzymatic activity (HDAC8); type: biochemical; details: in vitro enzymatic, 30 min pre-incubation, 1 μM substrate peptide
T2 construct: Full length Human HDAC8; HIS (N); host or cells: baculovirus expression system
T2 sequence (Q9BY41 1-377): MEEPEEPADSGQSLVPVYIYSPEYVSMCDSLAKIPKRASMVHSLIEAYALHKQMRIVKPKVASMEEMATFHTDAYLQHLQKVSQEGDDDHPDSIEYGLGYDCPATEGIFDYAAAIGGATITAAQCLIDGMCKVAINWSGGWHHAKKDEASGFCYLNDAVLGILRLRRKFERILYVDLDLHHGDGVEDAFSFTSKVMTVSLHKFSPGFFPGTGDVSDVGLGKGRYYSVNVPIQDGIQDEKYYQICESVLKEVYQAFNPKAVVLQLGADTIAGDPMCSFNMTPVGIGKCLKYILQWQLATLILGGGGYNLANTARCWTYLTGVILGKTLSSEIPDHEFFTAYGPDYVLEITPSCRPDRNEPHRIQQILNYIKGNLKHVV

SMILES | pIC50 (Full length Human HDAC6) | Selectivity (6 v 8) (Full length Human HDAC6) | pIC50 (Full length Human HDAC8)
O=C(NO)c1ccc2c(c1)CCN1CCCC[C@@H]21 [Compound 89] | 5.00 to 6.00 | II (II: >1-10) | 5.00 to 6.00
O=C(NO)c1ccc2c(c1)CCN1CCCC[C@H]21 [Compound 90] | 5.00 to 6.00 | II (II: >1-10) | 5.00 to 6.00
O=C(NO)c1cc(F)c2c(c1)C[C@@H]1CCCCN1C2 [Compound 93] | 7.00 to 9.00 | IV (IV: >100-1000) | 5.00 to 6.00
O=C(NO)c1cc(F)c2c(c1)C[C@H]1CCCCN1C2 [Compound 94] | 6.00 to 7.00 | III (III: >10-100) | 5.00 to 6.00
CN1Cc2cc(C(=O)NO)cc(F)c2CN1Cc1ccccc1 [Compound 118] | 7.00 to 9.00 | IV (IV: >100-1000) | 5.00 to 6.00
O=C(NO)c1cc(F)c2c(c1)C[C@H]1CCCN1C2 [Compound 120] | 7.00 to 9.00 | IV (IV: >100-1000) | 5.00 to 6.00
O=C(NO)c1ccc2c(c1)C[C@@H]1CCCN1C2 [Compound 121] | 6.00 to 7.00 | III (III: >10-100) | 4.00 to 5.00
O=C(NO)c1ccc2c(c1)C[C@H]1CCCN1C2 [Compound 122] | 6.00 to 7.00 | III (III: >10-100) | 5.00 to 6.00
O=C(NO)c1cc(F)c2c(c1)CN1CCC[C@H]1C2 [Compound 123] | 6.00 to 7.00 | III (III: >10-100) | 5.00 to 6.00
O=C(NO)c1cc(F)c2c(c1)CN1CCC[C@@H]1C2 [Compound 124] | 7.00 to 9.00 | IV (IV: >100-1000) | 5.00 to 6.00
CC1(C)C[C@@H]2Cc3cc(C(=O)NO)cc(F)c3CN2C1 [Compound 126] | 6.00 to 7.00 | III (III: >10-100) | 5.00 to 6.00
CC1(C)C[C@@H]2Cc3c(F)cc(C(=O)NO)cc3CN2C1 [Compound 127] | 7.00 to 9.00 | IV (IV: >100-1000) | 5.00 to 6.00
CC1(C)C[C@H]2Cc3c(F)cc(C(=O)NO)cc3CN2C1 [Compound 128] | 6.00 to 7.00 | III (III: >10-100) | 5.00 to 6.00
O=C(NO)c1ccc2c(c1)C[C@@H]1COCCN1C2 [Compound 131] | 6.00 to 7.00 | III (III: >10-100) | 5.00 to 6.00
O=C(NO)c1ccc2c(c1)C[C@H]1COCCN1C2 [Compound 132] | 7.00 to 9.00 | IV (IV: >100-1000) | 5.00 to 6.00
O=C(NO)c1ccc2c(c1)CN1CCCC[C@@H]1C2 [Compound 143] | 6.00 to 7.00 | III (III: >10-100) | 5.00 to 6.00
O=C(NO)c1ccc2c(c1)CN1CCCC[C@H]1C2 [Compound 144] | 6.00 to 7.00 | III (III: >10-100) | 4.00 to 5.00
